Among the test systems are SK-MEL-2 melanoma; MALME-3M melanoma; HL-60(TB) leukemia; CAKI-1 renal; HT29 colon; HOP-62 NSCLC; A549 NSCLC.
Holding throughout (assay): NCI anticancer screen, dose series, 48 h

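Dose response: 5 concentrations. Exposure: 48 h. Format: 96-well plates. Endpoint: linear interpolation; highest concentration if not reached. GI50 is the concentration that inhibits growth by half. TGI is the concentration that stops growth completely.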

For `COc1ccc(-n2sc(=O)n(Cc3ccc(COC(=O)C(C)c4ccc(CC(C)C)cc4)cc3)c2=O)cc1` (stereo unspecified), the GI50 with SK-MEL-2 melanoma was 8.01 µM; with MALME-3M melanoma it was 1.04 µM; in the assay on HL-60(TB) leukemia, 1.23 µM; in the assay with CAKI-1 renal, 1.36 µM; in the assay on HT29 colon, 2.12 µM; with HOP-62 NSCLC, 8.84 µM. Also, the GI50 in the assay with A549 NSCLC is 9.56 µM. The TGI in the assay on SK-MEL-2 melanoma amounted to 17 µM; in the assay with MALME-3M melanoma, 2.3 µM; in the assay on HL-60(TB) leukemia it was 4.89 µM; with CAKI-1 renal, 5.37 µM; in the assay with HT29 colon, 16.1 µM; in the assay with HOP-62 NSCLC, 21.1 µM. The compound also yielded a TGI in the assay with A549 NSCLC of 25.9 µM.
Consider `CCOC(=O)C(Cc1ccc(OC)cc1)C(=O)OCC`, for which the GI50 with SK-MEL-2 melanoma is 2.64 µM; with MALME-3M melanoma it was 9.94 µM; with HL-60(TB) leukemia, 2.26 µM; in the assay on CAKI-1 renal, 4.67 µM; in the assay with HT29 colon, 4.15 µM; with HOP-62 NSCLC, 9.51 µM. Also, the GI50 with A549 NSCLC was 7.01 µM. Also, the TGI with SK-MEL-2 melanoma worked out at 8.66 µM; with MALME-3M melanoma it was 28 µM; in the assay on HL-60(TB) leukemia, 8.39 µM; in the assay with CAKI-1 renal, 16.6 µM; in the assay with HT29 colon, 25.4 µM; in the assay with HOP-62 NSCLC, 22.6 µM. The compound further gave a TGI in the assay on A549 NSCLC of 33.7 µM.
Regarding `C=C1C(=O)OC2CC3(C)OC3C3OC3C3=CC(OC3=O)C12` (stereo unspecified), the GI50 was 15.4 µM in the assay on SK-MEL-2 melanoma; 2.12 µM with MALME-3M melanoma; 2.13 µM with HL-60(TB) leukemia; 1.48 µM in the assay on CAKI-1 renal; 3.21 µM with HT29 colon; 15.2 µM in the assay on HOP-62 NSCLC. Further, in the assay on A549 NSCLC, the GI50 was 21.3 µM. The TGI with SK-MEL-2 melanoma was determined as 36.4 µM; in the assay on MALME-3M melanoma it was 4.19 µM; in the assay with HL-60(TB) leukemia it was 4.83 µM; in the assay with CAKI-1 renal, 3 µM; with HT29 colon it was 10.8 µM; with HOP-62 NSCLC, 41.5 µM. In addition, in the assay on A549 NSCLC, the TGI was 46.8 µM.
For `O=C(NO)c1cnc(N2CCN(S(=O)(=O)c3ccc4ccccc4c3)CC2)nc1`, the GI50 in the assay with SK-MEL-2 melanoma is 0.0345 µM; in the assay with MALME-3M melanoma it was 0.0224 µM; with HL-60(TB) leukemia it was 0.0457 µM; in the assay with CAKI-1 renal, 0.114 µM; in the assay on HT29 colon, 0.0344 µM; with HOP-62 NSCLC it was 0.104 µM. In the assay with A549 NSCLC, the GI50 is 0.0459 µM. The TGI in the assay on SK-MEL-2 melanoma worked out at 0.214 µM; with MALME-3M melanoma, 12.6 µM; in the assay with HL-60(TB) leukemia, 29.8 µM; in the assay on CAKI-1 renal, 0.328 µM; in the assay with HT29 colon, 2.11 µM; in the assay with HOP-62 NSCLC, 5.49 µM. In addition, the TGI in the assay with A549 NSCLC worked out at 0.37 µM.
Consider `CON`, for which the GI50 in the assay with SK-MEL-2 melanoma, in the assay with MALME-3M melanoma, in the assay on HL-60(TB) leukemia, in the assay with CAKI-1 renal, in the assay on HT29 colon and in the assay with HOP-62 NSCLC was more than 100 µM in each case. Further, the GI50 in the assay with A549 NSCLC is more than 100 µM. Besides, the TGI in the assay on SK-MEL-2 melanoma, with MALME-3M melanoma, with HL-60(TB) leukemia, with CAKI-1 renal, in the assay with HT29 colon and with HOP-62 NSCLC was more than 100 µM in each case. The compound also yielded a TGI with A549 NSCLC of more than 100 µM.
Regarding `CCc1ccccc1-n1c(N)c(C#N)c(-c2ccc(OC)c(OC)c2)c(C#N)c1=O`, the GI50 in the assay on SK-MEL-2 melanoma is 25.8 µM; with MALME-3M melanoma, 17.4 µM; in the assay with HL-60(TB) leukemia it was more than 100 µM; in the assay on CAKI-1 renal it was more than 100 µM; with HT29 colon, 41 µM; in the assay on HOP-62 NSCLC, 17.1 µM. Also, the GI50 in the assay on A549 NSCLC was 34.4 µM. Further, the TGI in the assay with SK-MEL-2 melanoma is 80.6 µM; with MALME-3M melanoma, 40.4 µM; in the assay with HL-60(TB) leukemia, more than 100 µM; in the assay on CAKI-1 renal it was more than 100 µM; with HT29 colon it was more than 100 µM; in the assay on HOP-62 NSCLC, 34.3 µM. This compound gave a TGI with A549 NSCLC of more than 100 µM.
`CC(C)CNc1nc(N=[N+]=[N-])nc(NCC(C)C)n1`: the GI50 with SK-MEL-2 melanoma, in the assay on MALME-3M melanoma, in the assay on HL-60(TB) leukemia, in the assay with CAKI-1 renal, with HT29 colon and in the assay with HOP-62 NSCLC was more than 10 µM each time. Besides, in the assay on A549 NSCLC, the GI50 was more than 10 µM. The TGI in the assay on SK-MEL-2 melanoma, with MALME-3M melanoma, in the assay on HL-60(TB) leukemia, with CAKI-1 renal, in the assay on HT29 colon and with HOP-62 NSCLC was more than 10 µM throughout. In the assay on A549 NSCLC, this compound gave a TGI of more than 10 µM.
On to `Brc1ccc(Br)nn1`, for which the GI50 in the assay on SK-MEL-2 melanoma is 2.91 µM; in the assay with MALME-3M melanoma, 1.75 µM; in the assay on HL-60(TB) leukemia it was 1.22 µM; in the assay with CAKI-1 renal, 1.96 µM; in the assay on HT29 colon, 3.38 µM; in the assay on HOP-62 NSCLC, 4.02 µM. Besides, the GI50 in the assay with A549 NSCLC was 12.5 µM. The TGI is 20.4 µM with SK-MEL-2 melanoma; 3.7 µM in the assay with MALME-3M melanoma; 4.85 µM in the assay on HL-60(TB) leukemia; 5.07 µM in the assay on CAKI-1 renal; more than 22.3 µM in the assay with HT29 colon; 10.1 µM in the assay with HOP-62 NSCLC. In addition, the TGI in the assay on A549 NSCLC amounted to 32.4 µM.
As for `CC[C@H](C)[C@H](NC(=O)C12CC(NC(C)=O)(C1)C2)C(=O)N(C)[C@H](C[C@@H](OC(C)=O)c1nc(C(=O)N[C@@H](Cc2ccccc2)C[C@H](C)C(=O)OC)cs1)C(C)C`, the GI50 is 0.108 µM in the assay on SK-MEL-2 melanoma; 0.0522 µM with HL-60(TB) leukemia; 11.2 µM in the assay with CAKI-1 renal; 0.0731 µM in the assay with HT29 colon; 0.473 µM in the assay on HOP-62 NSCLC; 0.907 µM with A549 NSCLC. Besides, the TGI is more than 16.7 µM with SK-MEL-2 melanoma; more than 16.7 µM in the assay on MALME-3M melanoma; 0.21 µM in the assay with HL-60(TB) leukemia; more than 16.7 µM in the assay on CAKI-1 renal; more than 5.52 µM in the assay with HT29 colon; more than 10.4 µM in the assay with HOP-62 NSCLC. Moreover, the TGI in the assay with A549 NSCLC is more than 16.7 µM.
As for `Nc1cccc2nsnc12`, the TGI is more than 100 µM in the assay on SK-MEL-2 melanoma; more than 100 µM with MALME-3M melanoma; 26.7 µM in the assay on HL-60(TB) leukemia; more than 100 µM in the assay on CAKI-1 renal; more than 100 µM in the assay on HT29 colon; more than 100 µM in the assay on HOP-62 NSCLC. For the same compound, the TGI in the assay with A549 NSCLC is more than 100 µM.
Consider `CCNCCNc1cc(-c2cccc(C(F)(F)F)c2)c(C#N)c2nc3ccccc3n12`, for which the GI50 is 1.87 µM with SK-MEL-2 melanoma; 1.64 µM with MALME-3M melanoma; 2.23 µM with HL-60(TB) leukemia; 1.54 µM in the assay with CAKI-1 renal; 1.24 µM in the assay with HT29 colon; 2.13 µM with HOP-62 NSCLC. In the assay with A549 NSCLC, the GI50 was 1.48 µM. Besides, the TGI in the assay with SK-MEL-2 melanoma amounted to 3.59 µM; with MALME-3M melanoma, 3.29 µM; with HL-60(TB) leukemia, 4.21 µM; in the assay on CAKI-1 renal, 3 µM; in the assay on HT29 colon, 2.65 µM; in the assay with HOP-62 NSCLC it was 3.8 µM. The compound also displayed a TGI in the assay on A549 NSCLC of 3 µM.

The record behind these values is PubChem BioAssay (NCI).
